We go through 4 compounds from patent US20120230914A1, “LABELING COMPOUND FOR PET” (RIKEN, priority 2009, published 2012).

In general, Kd refers to the constant that tells how readily two partners part at equilibrium.

A short description of series [1]: Reuptake of labeled metabolite: HPLC of blood and brain extracts after tail vein injection. Format: in vivo. The note with it: male rats, brain sampled 5, 10 and 20 min after injection. The protocol:
5, 10 and 20 min after the injection, bloods were sampled from aorta adbominalis and then the brains were taken out and homogenized. Acetonitrile was added to the bloods and homogenated brains and the resultants were subjected to centrifugation, and extracts were subjected to HPLC in order to measure labeled metabolites.
Data for “Monkey” shown in FIG. 8 was obtained by sampling vein blood along with PET imaging, centrifuging the sampled vein blood, adding acetonitrile to the blood plasma and centrifuging the blood plasma, and subjecting the extract to HPLC to measure parent compound in the blood plasma.

The target of series [2] is T1, aromatase (Rattus norvegicus, UniProt P22443).
T1 construct: from tissue; host or cells: rat ovary homogenate (female rats)
T1 sequence (P22443 1-508): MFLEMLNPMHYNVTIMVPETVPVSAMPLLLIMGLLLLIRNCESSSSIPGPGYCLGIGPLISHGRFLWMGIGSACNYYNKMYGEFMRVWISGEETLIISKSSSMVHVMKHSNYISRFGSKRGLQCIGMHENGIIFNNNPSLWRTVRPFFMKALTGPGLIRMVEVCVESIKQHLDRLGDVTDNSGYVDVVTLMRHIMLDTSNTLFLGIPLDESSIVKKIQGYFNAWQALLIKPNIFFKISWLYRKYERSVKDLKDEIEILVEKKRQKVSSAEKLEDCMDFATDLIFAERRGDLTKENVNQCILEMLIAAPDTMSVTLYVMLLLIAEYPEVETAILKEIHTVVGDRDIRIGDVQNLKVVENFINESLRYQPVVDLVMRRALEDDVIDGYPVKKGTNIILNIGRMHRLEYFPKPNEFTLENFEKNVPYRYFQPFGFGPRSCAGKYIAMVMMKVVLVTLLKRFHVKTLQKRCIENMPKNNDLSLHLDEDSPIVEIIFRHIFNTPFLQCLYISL
The series can be described thus: In vitro binding test (ligand saturation, Scatchard plot analysis). Also noted: species or system rats. The protocol: Specifically, female rats were anesthetized with diethyl ether, and 0.01 M phosphate buffered saline (PBS, pH 7.4) was perfused via hearts. Ovaries of the rats were removed immediately and homogenized in 1 mL of a 0.32 M sucrose solution.
After filtration, counting was performed by a γ counter, and the average of KD was calculated by Scatchard plot analysis.

The target of series [3] is T2, aromatase (Macaca mulatta, UniProt A0A1D5QZ23).
T2 sequence (A0A1D5QZ23 1-503): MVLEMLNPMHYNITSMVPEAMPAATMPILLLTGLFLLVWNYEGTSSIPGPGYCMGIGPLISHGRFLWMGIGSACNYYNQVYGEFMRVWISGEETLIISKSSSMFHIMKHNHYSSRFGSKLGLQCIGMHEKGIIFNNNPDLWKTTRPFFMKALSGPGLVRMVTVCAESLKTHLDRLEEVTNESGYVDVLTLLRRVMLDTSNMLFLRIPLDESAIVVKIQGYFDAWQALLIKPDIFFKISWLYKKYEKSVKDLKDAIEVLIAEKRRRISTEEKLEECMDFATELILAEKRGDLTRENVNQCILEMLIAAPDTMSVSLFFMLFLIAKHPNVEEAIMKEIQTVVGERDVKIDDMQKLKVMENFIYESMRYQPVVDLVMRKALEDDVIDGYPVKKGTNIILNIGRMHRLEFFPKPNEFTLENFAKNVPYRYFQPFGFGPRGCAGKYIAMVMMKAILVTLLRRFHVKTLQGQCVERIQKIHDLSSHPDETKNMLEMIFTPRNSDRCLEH
The series can be described thus: PET measurement (binding potential images and SUV in brain regions). Conditions: for specific binding in amygdala (binding potential images): male Rhesus macaques, i.v. 33 MBq/kg, 90 min scan, cerebellum as reference region; for binding potential (difference among the compounds): Rhesus macaques, relative to Compounds (10), (22), (33), (39).
Procedure: (§1) (i) Male Rhesus macaques were subjected to PET measurement. Specifically, Rhesus macaques were put under sedation with ketalar (10 mg/kg), and intravenous catheters for RI administration were attached to their legs. Thereafter, the Rhesus macaques were anesthetized using propofol (10 mg/kg/h), and were immobilized in a PET scanner.
(§2) After reconstructing images, binding potential (BP) images with cerebellum as a reference region were constructed. The binding potential used herein indicates a value obtained by dividing an association rate constant by a dissociation rate constant.
(§3) SUV is a value obtained by dividing radioactivity density per 1 ml of tissue by radioactivity density per 1 g of body weight, i.e. SUV=radioactivity density per 1 ml of tissue/radioactivity density per 1 g of body weight.

The subject of series [4] is aromatase. Described as above. Conditions: for temporal change in SUV (standardized uptake value) in the latter part of scanning: Rhesus macaques, cerebellum, amygdala, hypothalamus, nucleus accumbens.
Procedure: as §1, §2, §3
Series [5] concerns the target T2, aromatase. The series can be described thus: Replacement test with non-radiolabeled vorozole (PET binding potential). Format: in vivo. Further details: allows quantifying aromatase in the brain with higher accuracy; from tissue; host or cells: brain of living male Rhesus macaques (amygdala, hypothalamus, nucleus accumbens). The note with it: Rhesus macaques; after non-radiolabeled VOR 100 μg/kg; compared with VOR. The protocol:
5 min before administration of the Compound (10), non-radiolabeled vorozole (VOR) (100 μg/kg) was administered, and binding potential (BP) of Rhesus macaques were observed.

As for `[11CH3]c1ccc(CN(c2ccc(C#N)cc2)n2cnnc2)cc1` [Compound (10), 4-{(4-[^11C]Methylbenzyl)(4H-1,2,4-triazol-4-yl)amino}benzonitrile], the “reuptake of labeled metabolite into the brain” value in series [1] is on record as “such reuptake was not observed”. At aromatase [2] (from KD values), the “affinity relative to VOR” value is “approximately twice higher affinity than VOR”. Also, on aromatase [2] (homogenized rat ovaries, room temperature, 30 min, nonspecific binding with 1 μM non-radiolabeled VOR, read-out: dissociation constant (KD)), the Kd turned out to be 0.3 nM. For the same compound, on aromatase [3], the “specific binding in amygdala (binding potential images)” value (“specific binding in amygdala” below) was “specific binding was observed in amygdala”. In the series on aromatase [4], the “temporal change in SUV (standardized uptake value) in the latter part of scanning” value (from here on “temporal change in SUV”) is given as “decreases as time passes”. Also, the “nonspecific binding of the labeled compound to cerebral cortex etc.” value in the series with aromatase [4] (male Rhesus macaques, compared to conventional [11C]vorozole) is reported as “decreased”. Further, the “amount of replaced binding (considered nonspecific binding)” value on aromatase [5] is on record as “smaller amount of replaced binding than the case of VOR”.
For the compound `[11CH3]c1cccc(CN(c2ccc(C#N)cc2)n2cnnc2)c1` [Compound (22), 4-{(3-[^11C]Methylbenzyl)(4H-1,2,4-triazol-4-yl)amino}benzonitrile], on aromatase [3], the “binding potential (difference among the compounds)” value was “relatively low binding potential” and the “specific binding in amygdala” value was “specific binding was observed in amygdala”. Further, the “temporal change in SUV” value in the series on aromatase [4] is reported as “decreases as time passes”.
Take `[11CH3]c1ccc(CN(c2ccc([N+](=O)[O-])cc2)n2cnnc2)cc1` [Compound (33), 4-{(4-[^11C]Methylbenzyl)(4H-1,2,4-triazol-4-yl)amino}nitrobenzene]: at aromatase [3], the “specific binding in amygdala” value is “specific binding was observed in amygdala”. Besides, the “temporal change in SUV” value with aromatase [4] is listed as “decreases as time passes”.
On to `[11CH3]c1ccc(CN(c2ccc(C#N)cc2)n2cncn2)cc1` [Compound (39), 4-{(4-[^11C]Methylbenzyl)(1H-1,2,4-triazol-1-yl)amino}benzonitrile], for which, at aromatase [3], the “binding potential (difference among the compounds)” value is “relatively high binding potential” and the “specific binding in amygdala” value is listed as “specific binding was observed in amygdala”. The “temporal change in SUV” value with aromatase [4] is reported as “decreases as time passes”.
